pIC50: −log10 of the molar value. Read-outs that look alike come from different tables or passages of the source.
Columns and labels:
Sk-Mel-28 = experiment: 3-day CellTiter-Glo cell viability assay; format: cell-based; conditions: read-out: GI50, drug alone
Method: (§1) To assess the growth/survival response of cell lines to single or combinatorial drug treatments in FIGS. 2-3 and FIGS. 20, 22, 28, 29, we used CellTiter-Glo cell viability assay (Promega; cat #G7571). Cell culture and luminescence readouts were performed in 96- and 384-well plates after 3-day treatments. Drug treatment conditions are described in the text. The effects of drug combinations on cell growth were assessed by calculating drug interaction (D.I.; two-way ANOVA using Prism or Sigma Plot software) and combination index (C.I.; following either the Loewe Additivity^6-9 or Bliss Independence models^[…]). […] We systematically tested the effects of drugs in both regular and low serum culture conditions (i.e. 5% and 0.25% FBS media). To quantitate cell death in FIG. 3 and FIGS. 28-29, FACS analysis of nuclear degradation was performed as previously described^13. Colony formation assay in FIG. 3 and FIG. 30 were performed as previously described^5.

A375 = experiment: 3-day CellTiter-Glo cell viability assay; format: cell-based; conditions: read-out: GI50, drug alone
Method: as §1

[1] = tested on: BRAF^V600E melanoma cell lines; experiment: Growth response to drug combinations with VEM (Bliss combination index); format: cell-based; conditions: A375 and Sk-Mel-28; VEM + 2nd drug
Source text: (a) Summary of possible cell responses to the combination of two drugs. The heatmap on the left represents the experimental effects of combining increasing concentrations of drug A+B as changes in cancer cell growth. The middle graph is a conceptual representation of how differences in effects of drugs alone or combined can be interpreted as either synergistic, additive, or antagonistic (derived from^10). The heatmap on the right represents the calculated combination index from all experimental cell growth data points. We decided to analyze experimental profiles using the Bliss Independence model to calculate combination indices (CI) and avoid inaccuracies from dose-effect curve estimations (CI=log 2 (Eab/(Ea*Eb); synergy CI<0; additivity CI=0; antagonism CI>0) 10-12. (b) Maps of cell growth responses (left) and combination indices (right). We tested the dependency of BRAF^V600E melanoma cell lines for kinases found as differentially active by HT-KAM in patient tumors (FIG. 26a,b). We included everolimus or trametinib (bottom two rows) as experimental ‘positive’ controls and for side-by-side comparison of the effects of other kinase-targeting drugs we tested. Arrows located above and on the left of each cell growth heatmaps serve as indicators of GI50 concentrations for each drug alone.
as §1

AKT1 = target: T1, AKT1 (Homo sapiens, UniProt P31749); experiment: HT-KAM ATP-consumption kinase activity assay with inhibitors; format: biochemical; conditions: control assays, data not shown
T1 construct: purchased SignalChem A16-10G

WiDr cells = experiment: 3-day cell viability assay; format: cell-based; conditions: Homo sapiens, 72 h, read-out: GI50 concentration
Source text: FIG. 20. Response of BRAF^V600E CRC cells to targeted therapy combinations. To validate the kinase activity signatures of VEM-resistant WiDr cells found by HT-KAM screen, and as a mean to assess the role of these kinases (AKT1, PDPK1, PRKCA, SGK1) as mediators of the response to VEM and their potential value as druggable vulnerabilities in our model, we used 3-day cell viability assays to monitor the response of cells to drug combinations.
as §1

A375 myrAKT1 cells = experiment: 3-day cell viability assay, myrAKT1-expressing cells; format: cell-based; conditions: myrAKT1-expressing vs control counterpart; p=2.77E-06
Source text: FIG. 29. A375 expressing a constitutively active AKT1 oncogenic kinase remain sensitive to RPS6KB- or PIM-targeting. We exogenously expressed myrAKT1 (i.e. a constitutively active oncogenic AKT1) in A375 cells. We then tested the sensitivity of A375 myrAKT1 cells to drug combinations.
as §1

LCK = LCK (Homo sapiens, UniProt P06239); conditions: literature reports; cited from earlier work
M061R.X1. CL = experiment: 3-week colony formation assay; format: cell-based; conditions: PDX-derived cell line without high RPS6KB1
Source text: (§2) (a-b) Phospho-RPS6KB profiles of two patient-derived xenografts (PDXs) tumor tissues (a) and related cell lines (b). PDXs were previously^4,5 established from patients refractory to BRAF^V600E-therapy. A limited number of primary cell lines were derived from these PDX's. (c) Sensitivity of primary melanoma cell lines to RPS6KB-inhibitor PF-4708671 in 3-week colony formation assays.
as §1

M032R6.X1. CL = experiment: 3-week colony formation assay; format: cell-based; conditions: PDX-derived cell line with high RPS6KB1
Source text: as §2, §1

[2] = Homo sapiens, SK-MEL-28, 72 h, 0.25% FBS media
[3] = Homo sapiens, SK-MEL-28, 72 h, 5% FBS media
[4] = Homo sapiens, A-375, 72 h, 0.25% FBS media
[5] = Homo sapiens, A-375, 72 h, 5% FBS media

T1 sequence (P31749 whole entry): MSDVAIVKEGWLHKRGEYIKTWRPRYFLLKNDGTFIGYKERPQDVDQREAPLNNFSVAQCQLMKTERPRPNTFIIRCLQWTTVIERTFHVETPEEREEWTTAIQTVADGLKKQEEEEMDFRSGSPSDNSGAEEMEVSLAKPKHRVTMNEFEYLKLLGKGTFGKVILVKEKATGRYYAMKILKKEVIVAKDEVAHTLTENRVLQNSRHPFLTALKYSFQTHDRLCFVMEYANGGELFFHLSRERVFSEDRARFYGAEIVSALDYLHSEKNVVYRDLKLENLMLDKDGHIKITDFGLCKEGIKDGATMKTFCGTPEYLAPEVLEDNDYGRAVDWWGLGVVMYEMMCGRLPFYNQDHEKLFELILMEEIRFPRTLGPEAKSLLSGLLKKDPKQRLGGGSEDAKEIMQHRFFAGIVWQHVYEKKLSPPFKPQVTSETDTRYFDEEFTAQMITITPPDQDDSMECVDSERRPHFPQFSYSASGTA
Sequence of LCK (P06239 whole entry, species assumed): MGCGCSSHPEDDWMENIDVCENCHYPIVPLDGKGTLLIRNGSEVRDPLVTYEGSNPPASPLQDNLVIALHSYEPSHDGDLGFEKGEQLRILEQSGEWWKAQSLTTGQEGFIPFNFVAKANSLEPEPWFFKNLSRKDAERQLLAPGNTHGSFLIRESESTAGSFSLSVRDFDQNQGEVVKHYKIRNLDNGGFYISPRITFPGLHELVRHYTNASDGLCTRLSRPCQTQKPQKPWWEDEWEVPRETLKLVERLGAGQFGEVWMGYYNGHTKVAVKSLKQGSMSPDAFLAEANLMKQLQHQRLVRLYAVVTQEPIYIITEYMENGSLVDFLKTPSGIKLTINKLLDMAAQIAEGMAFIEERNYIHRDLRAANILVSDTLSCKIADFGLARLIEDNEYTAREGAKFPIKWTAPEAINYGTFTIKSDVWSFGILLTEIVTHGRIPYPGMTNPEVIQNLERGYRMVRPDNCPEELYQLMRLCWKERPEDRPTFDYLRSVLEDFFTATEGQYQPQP

Row | GI50 (A375; [4]) [µM] | GI50 (A375; [5]) [µM] | GI50 (A375; 0.25% FBS media) [µM] | GI50 (A375; 5% FBS media) [µM] | Structure (SMILES) | GI50 (Sk-Mel-28; [2]) [µM] | GI50 (Sk-Mel-28; [3]) [µM] | GI50 (Sk-Mel-28; 0.25% FBS media) [µM] | GI50 (Sk-Mel-28; 5% FBS media) [µM] | effect of combination with VEM on cell growth / combination index [1] | also measured
1 | 2.5 | 10 |  |  | NC1(c2ccc(-c3nc4ccn5c(=O)[nH]nc5c4cc3-c3ccccc3)cc2)CCC1 [MK2206] | 5 | 2.5 |  |  |  | effect on AKT1 activity (AKT1): effectively decreased AKT1 activity
2 |  |  | 12.5 | 12.5 | N[C@@H]1CCCN(c2c(/C=C3\SC(=O)NC3=O)cccc2-c2ccccc2)C1 [AZD1208] |  |  | 25 | 25 | strong growth inhibitory effects | 
3 |  |  | 16 | 32 | CCc1cncnc1N1CCN(Cc2nc3ccc(C(F)(F)F)cc3[nH]2)CC1 [PF-4708671] |  |  | 16 | 32 | strong growth inhibitory effects | sensitivity in colony formation (M061R.X1. CL): not sensitive; sensitivity in colony formation (M032R6.X1. CL): sensitive

Continued, molecule first:

Row | Structure (SMILES) | GI50 (A375; [4]) [µM] | GI50 (A375; [5]) [µM] | GI50 (A375; 0.25% FBS media) [µM] | GI50 (A375; 5% FBS media) [µM] | GI50 (Sk-Mel-28; [2]) [µM] | GI50 (Sk-Mel-28; [3]) [µM] | GI50 (Sk-Mel-28; 0.25% FBS media) [µM] | GI50 (Sk-Mel-28; 5% FBS media) [µM] | effect of combination with VEM on cell growth / combination index [1] | also measured
4 | CC(=O)Nc1cccc(-n2c(=O)n(C3CC3)c(=O)c3c(Nc4ccc(I)cc4F)n(C)c(=O)c(C)c32)c1 [trametinib] | 0.0025 | 0.005 |  |  | 0.01 | 0.01 |  |  |  | 
5 | CC(C)CCN1c2nc(Nc3cc(F)c(O)c(F)c3)ncc2N(C)C(=O)C1C (stereo not shown) [BI-D1870] |  |  | > 50 | 12.5 |  |  | 12.5 | 25 | additive effects only | 
6 | CO[C@H]1C[C@@H]2CC[C@@H](C)[C@@](O)(O2)C(=O)C(=O)N2CCCC[C@H]2C(=O)O[C@H]([C@H](C)C[C@@H]2CC[C@@H](OCCO)[C@H](OC)C2)CC(=O)[C@H](C)/C=C(\C)[C@@H](O)[C@@H](OC)C(=O)[C@H](C)C[C@H](C)/C=C/C=C/C=C/1C [everolimus] | 10 | 5 |  |  | 10 | 10 |  |  |  | 
7 | COc1ccc2c(c1)c(C1=C(c3c[nH]c4ccccc34)C(=O)NC1=O)cn2CCCN(C)C [Go6983] |  |  |  |  |  |  |  |  | limited additivity effects | 
8 | CCCS(=O)(=O)Nc1ccc(F)c(C(=O)c2c[nH]c3ncc(-c4ccc(Cl)cc4)cc23)c1F [VEM, vemurafenib] | 0.02 | 0.15 |  |  | 0.31 | 0.63 |  |  |  | GI50 (WiDr cells): 2 µM; increase in GI50 versus control A375 (A375 myrAKT1 cells): 65%
9 | CN1CCN(c2nc(C3=C(c4c[nH]c5ccccc45)C(=O)NC3=O)c3ccccc3n2)CC1 [Sotrastaurin, sotrastaurin] |  |  |  |  |  |  |  |  | limited additivity effects | 
10 | CN(C)S(=O)(=O)c1ccc2c(c1)/C(=C/c1cc3c([nH]1)CCCC3)C(=O)N2 [SU6656] |  |  |  |  |  |  |  |  |  | pIC50 (LCK): < 5.30
11 | Cn1cc(-c2ccc(F)c(C(F)(F)F)c2)nc1C1CCN(c2ncnc3[nH]ncc23)CC1 [LY2584702] | > 200 | 50 |  |  | 100 | 100 |  |  | strong growth inhibitory effects | 
12 | O=C1Cc2c([nH]c3ccc(Br)cc23)-c2ncccc2N1 [1-Azakenpaullone] |  |  | 2.5 | 20 |  |  | 10 | 20 | antagonizing the effects of VEM treatment | 
